Consider 2 compounds from patent US5244895A, “Anti-ulcer agent” (Hidaka; Hiroyoshi, priority 1991, dated 1993).

Data set [1] has as its system gastric juice secretion. Briefly: Anti-gastric juice secretion test, intraduodenal administration (pylorus ligation). The data set is classed as in vivo, Crj:Wistar rat (male). The following applies: 100 mg/kg intraduodenal, 4 h after pylorus ligation; for pH of gastric juice: control 1.7; for Amount of gastric juice: control 2.6; for Free hydrochloric acid: control 116; for Total acidity: control 168. Here is the method: Each 100 mg/kg of the test compounds was administered duodenally to a male Crj:Wistar rat of 205 to 240 g body weight fasted for ca. 24 hours (7 to 8 rats per group) and immediately after the dose the pylorus was ligated under diethyl ether anesthesia. Four hours after the ligation, the animal was killed and the stomach was isolated and the amount and the pH of gastric juice and free hydrochloric acid contained in it and the total acidity of it were measured to examine the effect of inhibiting gastric juice secretion. The test compounds were dosed after dissolved in physiological saline or in physiological saline containing Tween 80 added. Five […] of physiological saline was administered to the control group.

For data set [2], the system named is gastric juice secretion. Briefly: Anti-gastric juice secretion test, intraperitoneal administration (pylorus ligation). The data set is classed as in vivo, Crj:Wistar rat (male). The following applies: 100 mg/kg intraperitoneal, 30 min before pylorus ligation; for pH of gastric juice: control 1.7; for Amount of gastric juice: control 3.2; for Free hydrochloric acid: control 155; for Total acidity: control 208.

The test system of data set [3] is aspirin ulcer. Briefly: Anti-aspirin ulcer test, oral administration. The class given is in vivo, Crj:Wistar rat (male). The following applies: 100 mg/kg oral; for Gastric damage index: 30 min before aspirin 200 mg/kg oral, control 76.0. Here is the method:
(§1) Each 100 mg/kg of the test compounds was administered orally to a male Crj:Wistar rat of 198 to 243 g body weight fasted for ca. 24 hours (7 to 8 rats per group) and 30 minutes after the administration 200 mg/5 ml/kg of aspirin suspended in 0.5% sodium CMC aqueous solution was administered orally. Six hours later the animals was killed by exsanguination and the cardia part of stomach was ligated and 10 ml of 1% formaline solution was poured into the stomach and the stomach was extirpated. Then, it was incised along the greater curvature side and washed with physiological saline and the major axis of the spotted and linear erosion and ulcer were measured under a steromicroscope and their total sum per head was calculated as the gastric damage index (mm) and the effect was judged by the inhibiting rate against the control group [(Gastric damage index of the control group-Gastric damage index of the test compound)/Gastric damage index of the control group×100]. 0.5 ml/body weight of 1% pontamine sky blue physiological saline was injected intravenously 10 minutes before the slaughter. The test compound was administered after dissolved in physiological saline or in physiological saline containing Tween 80 added. Five […] of physiological saline was administered to the control group.

Data set [4] relates to aspirin ulcer. Briefly: Anti-aspirin ulcer test, intraperitoneal administration. The note with it: for Gastric damage index: 100 mg/kg intraperitoneal (abdominally injected), control 58.8; for Inhibition rate: gastric damage index vs control, 100 mg/kg intraperitoneal. The class given is in vivo, Crj:Wistar rat (male). Here is the method:
as §1
Each 100 mg/kg of the test compound was abdominally injected to a male Crj:Wistar rat of 210 to 265 g body weight fasted for ca. 24 hours (7 to 8 rats per group) and the procedures were carried out in a same manner as in oral administration.

The test system of data set [5] is water immersion restriction stress ulcer. Briefly: Water immersion restriction stress ulcer, oral administration. The following applies: 100 mg/kg oral; for Gastric damage index: 30 min before 6 h water immersion stress, control 15.7. The class given is in vivo, Crj:Wistar rat (male). Here is the method: (§2) After the stress loading, the animal was killed by exsanguination and the cardia part of stomach was ligated and then 10 ml of 1% formalin was poured into the stomach and the stomach was extirpated. […] 0.5 ml/body weight of 1% pontamine sky blue physiological saline was injected intravenously 10 minutes before the slaughter. The test compound was administered after dissolved in physiological saline or in physiological saline containing Tween 80 added. Five […] of physiological saline was administered to the control group.

For data set [6] the test system is unchanged. Nature of the data set: Water immersion restriction stress ulcer, intraperitoneal administration. The following applies: 100 mg/kg intraperitoneal; for Gastric damage index: control 22.7; for Inhibition rate: gastric damage index vs control. The class given is in vivo, Crj:Wistar rat (male). Here is the method:
as §2

Data set [7] is described as follows: Acute toxicity, oral administration. The data set is classed as in vivo, Sle:ICR mouse (male). The following applies: 300 mg/kg oral, 6 hours observation; for Mortality rate: deaths/mice. Here is the method:
(§3) Each test compound was administered to a male Sle:ICR mouse of 29 to 32 g body weight fasted for 18 to 20 hours (5 mice per group) to examine the presence of acute toxicity.

Data set [8] can be described thus: Acute toxicity, intraperitoneal administration. The class given is in vivo, Sle:ICR mouse (male). The following applies: 200 mg/kg intraperitoneal, 6 hours observation; for Mortality rate: deaths/mice. Here is the method: as §3

For `COc1ccc(CC(CN2CCCN(C(=O)OCc3ccccc3)CC2)N(CCN)S(=O)(=O)c2cccc3cnccc23)cc1` (centres unmarked) [(15), N-[2-(4-benzyloxycarbonylhomopiperazinyl)-1-(p-methoxybenzyl)ethyl]-N-(2-aminoethyl)-5-isoquinoline sulfonamide], the “pH of gastric juice” value in data set [1] and in data set [2] was 2.6 each time. Moreover, the figures for the “Amount of gastric juice” value in data set [1] and in data set [2] were 1.1 ml/100 g body weight and 1.3 ml/100 g body weight, respectively. Also, the Free hydrochloric acid in data set [1] is 22 μEq/100 g body weight; in data set [2], 36 μEq/100 body weight. For the same compound, the Total acidity is recorded as 43 μEq/100 g body weight in data set [1] and 74 μEq/100 body weight in data set [2]. Also, the Gastric damage index in data set [3] (6 h) is given as 35.8 mm; in data set [4], 11.8 mm; in data set [5], 6.6 mm; in data set [6], 6.6 mm. The Inhibition rate came to 64% in data set [3] (gastric damage index vs control, aspirin 200 mg/kg); 80% in data set [4]; 58% in data set [5] (gastric damage index vs control, water immersion stress); 71% in data set [6]. Further, the Mortality rate in data set [7] and in data set [8] was 0/5 in each case.

Consider `COc1ccc(CC(CN2CCCN(C(=O)OCc3ccccc3)CC2)N(CCN(C)C)S(=O)(=O)c2cccc3cnccc23)cc1` (centres unmarked) [(16), N-[2-(4-benzyloxycarbonylhomopiperazinyl)-1-(p-methoxybenzyl)ethyl]-N-(2-dimethylaminoethyl)-5-isoquinoline sulfonamide], for which the “pH of gastric juice” value in data set [1] and in data set [2] was 2.9 in each case. In addition, the “Amount of gastric juice” value in data set [1] came out at 0.9 ml/100 g body weight; in data set [2], 0.6 ml/100 g body weight. Further, the Free hydrochloric acid was found to be 11 μEq/100 g body weight in data set [1] and 8 μEq/100 body weight in data set [2]. In addition, the values for the Total acidity in data set [1] and in data set [2] were 29 μEq/100 g body weight and 24 μEq/100 body weight, respectively. The Gastric damage index in data set [3] (6 h) was found to be 17.0 mm; in data set [4], 10.6 mm; in data set [5], 4.6 mm; in data set [6], 5.4 mm. Moreover, the inhibition in vivo at 100 mg/kg stood at 78% in data set [3] (Rattus norvegicus, 6 h, gastric damage index vs control, aspirin 200 mg/kg, read-out: Inhibition rate) and 70% in data set [5] (Rattus norvegicus, 6 h, gastric damage index vs control, water immersion stress, read-out: Inhibition rate). For the same compound, the Inhibition rate in data set [4] was 82%; in data set [6], 76%. Besides, the General condition result in data set [7] and in data set [8] was “No abnormality” throughout. The Mortality rate in data set [7] and in data set [8] was 0/5 throughout.
